{"source": "patent US20240132484A1", "about": "“BROAD SPECTRUM ANTIVIRAL COMPOUNDS TARGETING THE SKI COMPLEX” (priority 2020, published 2024)", "key": {"SARS2": {"test_system": "SARS2", "assay_type": "cell-based, SARS-CoV-2", "details": "for Percentage Infection Relative to Appropriate DMSO Control with Avg Background Subtraction: single well"}}, "note": "Values joined by “and” are separate entries in the source; they are usually repeats but may differ in a detail not shown here. Identical values can stand only once. Like-named read-outs stand apart in the source and are kept apart here.", "data": [{"smiles": "OC(COc1c(CNCCc2ccccc2F)cccc1N1CCNCC1)CN1CCCC1", "note": "(stereo not shown) [SILCS22]", "values": [{"measurement": "SARS2 antiviral activity", "setting": "SARS2", "value": "activity approaching that of UMB18"}, {"measurement": "Infection Data, Average, Mean", "setting": "SARS2; Average of Exp 1-3, n 9, 1 uM", "value": 72.38, "unit": "%"}, {"measurement": "Infection Data, Average, Mean", "setting": "SARS2; Average of Exp 1-3, n 9, 5 uM", "value": 70.31, "unit": "%"}, {"measurement": "Infection Data, Average, Mean", "setting": "SARS2; Average of Exp 1-3, n 9, 10 uM", "value": 53.13, "unit": "%"}, {"measurement": "Infection Data, Average, Mean", "setting": "SARS2; Average of Exp 1-3, n 9, 25 uM", "value": 6.37, "unit": "%"}, {"measurement": "Infection Data, Average, Mean", "setting": "SARS2; Average of Exp 1-3, n 9, 50 uM", "value": 2.68, "unit": "%"}, {"measurement": "Percentage Infection Relative to Appropriate DMSO Control with Avg Background Subtraction", "setting": "SARS2; Exp 1 (SMW475), 1 uM", "value": "68.46% and 64.64% and 77.37%"}, {"measurement": "Percentage Infection Relative to Appropriate DMSO Control with Avg Background Subtraction", "setting": "SARS2; Exp 1 (SMW475), 5 uM", "value": "32.75% and 46.98% and 35.47%"}, {"measurement": "Percentage Infection Relative to Appropriate DMSO Control with Avg Background Subtraction", "setting": "SARS2; Exp 1 (SMW475), 10 uM", "value": "15.62% and 28.80% and 29.55%"}, {"measurement": "Percentage Infection Relative to Appropriate DMSO Control with Avg Background Subtraction", "setting": "SARS2; Exp 1 (SMW475), 25 uM", "value": "2.49% and 6.38% and 4.75%"}, {"measurement": "Percentage Infection Relative to Appropriate DMSO Control with Avg Background Subtraction", "setting": "SARS2; Exp 1 (SMW475), 50 uM", "value": "0.02% and 3.92% and 4.65%"}, {"measurement": "Percentage Infection Relative to Appropriate DMSO Control with Avg Background Subtraction", "setting": "SARS2; Exp 2 (SMW477), 1 uM", "value": "76.88% and 75.65% and 76.95%"}, {"measurement": "Percentage Infection Relative to Appropriate DMSO Control with Avg Background Subtraction", "setting": "SARS2; Exp 2 (SMW477), 5 uM", "value": "93.66% and 92.49% and 88.62%"}, {"measurement": "Percentage Infection Relative to Appropriate DMSO Control with Avg Background Subtraction", "setting": "SARS2; Exp 2 (SMW477), 10 uM", "value": "68.54% and 46.53% and 47.36%"}, {"measurement": "Percentage Infection Relative to Appropriate DMSO Control with Avg Background Subtraction", "setting": "SARS2; Exp 2 (SMW477), 25 uM", "value": "5.13% and 4.50% and 4.04%"}, {"measurement": "Percentage Infection Relative to Appropriate DMSO Control with Avg Background Subtraction", "setting": "SARS2; Exp 2 (SMW477), 50 uM", "value": "3.65% and 0.99% and 1.90%"}, {"measurement": "Percentage Infection Relative to Appropriate DMSO Control with Avg Background Subtraction", "setting": "SARS2; Exp 3 (SMW478), 1 uM", "value": "62.06% and 83.81% and 65.64%"}, {"measurement": "Percentage Infection Relative to Appropriate DMSO Control with Avg Background Subtraction", "setting": "SARS2; Exp 3 (SMW478), 5 uM", "value": "69.69% and 88.68% and 84.47%"}, {"measurement": "Percentage Infection Relative to Appropriate DMSO Control with Avg Background Subtraction", "setting": "SARS2; Exp 3 (SMW478), 10 uM", "value": "92.75% and 69.87% and 79.13%"}, {"measurement": "Percentage Infection Relative to Appropriate DMSO Control with Avg Background Subtraction", "setting": "SARS2; Exp 3 (SMW478), 25 uM", "value": "8.14% and 10.91% and 10.99%"}, {"measurement": "Percentage Infection Relative to Appropriate DMSO Control with Avg Background Subtraction", "setting": "SARS2; Exp 3 (SMW478), 50 uM", "value": "1.60% and 3.82% and 3.54%"}, {"measurement": "Percentage Inhibition Average 1 μM", "setting": "SARS2; SARS2, 1 μM", "value": 27.62, "unit": "%"}, {"measurement": "Screening data (Relative infection to DMSO controls) Average 1 μM", "setting": "SARS2; SARS2, 1 μM, 100=DMSO control", "value": 72.38}, {"measurement": "Percentage Inhibition Average 5 μM", "setting": "SARS2; SARS2, 5 μM", "value": 29.69, "unit": "%"}, {"measurement": "Screening data (Relative infection to DMSO controls) Average 5 μM", "setting": "SARS2; SARS2, 5 μM, 100=DMSO control", "value": 70.31}, {"measurement": "Percentage Inhibition Average 10 μM", "setting": "SARS2; SARS2, 10 μM", "value": 46.87, "unit": "%"}, {"measurement": "Screening data (Relative infection to DMSO controls) Average 10 μM", "setting": "SARS2; SARS2, 10 μM, 100=DMSO control", "value": 53.13}, {"measurement": "Percentage Inhibition Average 25 μM", "setting": "SARS2; SARS2, 25 μM", "value": 93.63, "unit": "%"}, {"measurement": "Screening data (Relative infection to DMSO controls) Average 25 μM", "setting": "SARS2; SARS2, 25 μM, 100=DMSO control", "value": 6.37}, {"measurement": "Percentage Inhibition Average 50 μM", "setting": "SARS2; SARS2, 50 μM", "value": 97.32, "unit": "%"}, {"measurement": "Screening data (Relative infection to DMSO controls) Average 50 μM", "setting": "SARS2; SARS2, 50 μM, 100=DMSO control", "value": 2.68}, {"measurement": "Average (relative infection to DMSO over the 5 tested concentrations)", "setting": "SARS2; SARS2, average over 1 to 50 uM, 100=DMSO control", "value": 40.97}, {"measurement": "Relative cell count to DMSO controls, Average 1 μM", "setting": "cells (nuclei count); 1 μM, toxicity data, 100=DMSO control", "value": 126.41}, {"measurement": "Relative cell count to DMSO controls, Average 5 μM", "setting": "cells (nuclei count); 5 μM, toxicity data, 100=DMSO control", "value": 125.64}, {"measurement": "Relative cell count to DMSO controls, Average 10 μM", "setting": "cells (nuclei count); 10 μM, toxicity data, 100=DMSO control", "value": 137.18}, {"measurement": "Relative cell count to DMSO controls, Average 25 μM", "setting": "cells (nuclei count); 25 μM, toxicity data, 100=DMSO control", "value": 131.85}, {"measurement": "Relative cell count to DMSO controls, Average 50 μM", "setting": "cells (nuclei count); 50 μM, toxicity data, 100=DMSO control", "value": 68.81}, {"measurement": "Toxicity Data, Average, Mean", "setting": "cells (nuclei count); Average of Exp 1-3, n 9, 1 uM", "value": 126.41, "unit": "%"}, {"measurement": "Toxicity Data, Average, Mean", "setting": "cells (nuclei count); Average of Exp 1-3, n 9, 5 uM", "value": 125.64, "unit": "%"}, {"measurement": "Toxicity Data, Average, Mean", "setting": "cells (nuclei count); Average of Exp 1-3, n 9, 10 uM", "value": 137.18, "unit": "%"}, {"measurement": "Toxicity Data, Average, Mean", "setting": "cells (nuclei count); Average of Exp 1-3, n 9, 25 uM", "value": 131.85, "unit": "%"}, {"measurement": "Toxicity Data, Average, Mean", "setting": "cells (nuclei count); Average of Exp 1-3, n 9, 50 uM", "value": 68.81, "unit": "%"}, {"measurement": "Relative cell count to DMSO controls, Average (for correlation analysis)", "setting": "cells (nuclei count); average value over the 5 tested concentrations (1 to 50 uM)", "value": 117.98}]}]}
